Common to all, as to format: cell-based
The target in assay [1] is protein kinases (human kinome) (Homo sapiens, UniProt Q13164). The settings on record: MAPK7 (Q13164-1).
Assay [2] deals with T1, protein kinases (human kinome) (Homo sapiens, UniProt Q8TD19).
T1 sequence (Q8TD19 1-979): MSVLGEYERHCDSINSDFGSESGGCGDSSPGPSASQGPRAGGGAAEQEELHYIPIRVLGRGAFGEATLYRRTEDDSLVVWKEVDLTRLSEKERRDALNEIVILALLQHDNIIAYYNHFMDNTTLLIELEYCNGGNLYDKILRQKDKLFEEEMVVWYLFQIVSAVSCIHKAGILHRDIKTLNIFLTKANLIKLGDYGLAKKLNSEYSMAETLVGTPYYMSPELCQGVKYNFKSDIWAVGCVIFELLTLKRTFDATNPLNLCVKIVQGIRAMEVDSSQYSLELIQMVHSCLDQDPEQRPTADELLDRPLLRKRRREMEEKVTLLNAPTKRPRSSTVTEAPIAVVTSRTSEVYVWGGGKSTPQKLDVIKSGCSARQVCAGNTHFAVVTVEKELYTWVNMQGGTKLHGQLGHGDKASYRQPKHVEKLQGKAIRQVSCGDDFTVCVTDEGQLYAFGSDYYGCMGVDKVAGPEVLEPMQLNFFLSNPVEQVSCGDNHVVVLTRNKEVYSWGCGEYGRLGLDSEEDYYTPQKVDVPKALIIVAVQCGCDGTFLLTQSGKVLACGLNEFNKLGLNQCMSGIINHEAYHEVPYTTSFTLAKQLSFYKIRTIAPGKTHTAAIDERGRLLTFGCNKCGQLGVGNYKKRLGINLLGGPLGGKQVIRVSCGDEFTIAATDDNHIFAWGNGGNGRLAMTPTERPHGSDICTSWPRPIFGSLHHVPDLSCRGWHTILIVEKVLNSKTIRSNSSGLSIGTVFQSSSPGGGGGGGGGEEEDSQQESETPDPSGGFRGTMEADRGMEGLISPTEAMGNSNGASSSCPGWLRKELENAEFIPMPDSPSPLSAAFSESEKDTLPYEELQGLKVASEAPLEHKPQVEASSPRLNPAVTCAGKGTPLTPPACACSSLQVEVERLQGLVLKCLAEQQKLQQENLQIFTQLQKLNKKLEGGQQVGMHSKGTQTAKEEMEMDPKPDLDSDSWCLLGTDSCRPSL

Assay [3] addresses protein kinases (human kinome) (Homo sapiens, UniProt P53350).
The target in assay [4] is protein kinases (human kinome) (Homo sapiens, UniProt Q9NYL2).
Assay [5] concerns the target protein kinases (human kinome) (Homo sapiens, UniProt Q9Y4K4). Conditions: MAP4K5 (Q9Y4K4).
The mark [6] stands for this setting: NEK9 (Q8TD19), experiment wp045, direction down.
Setting [7] is: NEK9 (Q8TD19), experiment wp117, direction down.
[8] abbreviates: experiment wp107, direction down.

Like-named read-outs stand apart in the source and are kept apart here.

Chain of protein kinases (human kinome) (Homo sapiens, UniProt Q13164) (Q13164 whole entry): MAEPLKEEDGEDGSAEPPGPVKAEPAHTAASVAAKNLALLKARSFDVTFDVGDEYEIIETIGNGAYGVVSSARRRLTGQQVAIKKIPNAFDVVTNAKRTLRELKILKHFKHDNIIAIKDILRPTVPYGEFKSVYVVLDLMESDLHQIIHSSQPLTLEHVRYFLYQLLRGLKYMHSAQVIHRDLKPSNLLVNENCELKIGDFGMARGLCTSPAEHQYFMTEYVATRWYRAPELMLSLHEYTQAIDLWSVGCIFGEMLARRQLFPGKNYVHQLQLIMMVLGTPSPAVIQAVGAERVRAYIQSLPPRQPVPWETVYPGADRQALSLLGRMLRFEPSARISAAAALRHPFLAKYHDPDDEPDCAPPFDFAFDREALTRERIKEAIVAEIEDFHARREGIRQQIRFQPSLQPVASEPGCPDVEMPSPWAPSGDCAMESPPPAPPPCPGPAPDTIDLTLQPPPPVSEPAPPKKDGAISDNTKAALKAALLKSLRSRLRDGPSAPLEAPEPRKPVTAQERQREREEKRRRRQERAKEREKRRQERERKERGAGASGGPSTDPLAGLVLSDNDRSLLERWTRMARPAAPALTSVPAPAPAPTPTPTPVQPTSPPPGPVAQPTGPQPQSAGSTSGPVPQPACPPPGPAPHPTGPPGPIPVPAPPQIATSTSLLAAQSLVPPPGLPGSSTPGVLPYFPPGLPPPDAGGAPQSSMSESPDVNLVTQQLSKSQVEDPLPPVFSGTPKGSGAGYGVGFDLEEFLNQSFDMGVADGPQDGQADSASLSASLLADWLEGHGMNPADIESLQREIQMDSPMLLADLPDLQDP
Chain of protein kinases (human kinome) (Homo sapiens, UniProt Q9NYL2) (Q9NYL2 whole entry): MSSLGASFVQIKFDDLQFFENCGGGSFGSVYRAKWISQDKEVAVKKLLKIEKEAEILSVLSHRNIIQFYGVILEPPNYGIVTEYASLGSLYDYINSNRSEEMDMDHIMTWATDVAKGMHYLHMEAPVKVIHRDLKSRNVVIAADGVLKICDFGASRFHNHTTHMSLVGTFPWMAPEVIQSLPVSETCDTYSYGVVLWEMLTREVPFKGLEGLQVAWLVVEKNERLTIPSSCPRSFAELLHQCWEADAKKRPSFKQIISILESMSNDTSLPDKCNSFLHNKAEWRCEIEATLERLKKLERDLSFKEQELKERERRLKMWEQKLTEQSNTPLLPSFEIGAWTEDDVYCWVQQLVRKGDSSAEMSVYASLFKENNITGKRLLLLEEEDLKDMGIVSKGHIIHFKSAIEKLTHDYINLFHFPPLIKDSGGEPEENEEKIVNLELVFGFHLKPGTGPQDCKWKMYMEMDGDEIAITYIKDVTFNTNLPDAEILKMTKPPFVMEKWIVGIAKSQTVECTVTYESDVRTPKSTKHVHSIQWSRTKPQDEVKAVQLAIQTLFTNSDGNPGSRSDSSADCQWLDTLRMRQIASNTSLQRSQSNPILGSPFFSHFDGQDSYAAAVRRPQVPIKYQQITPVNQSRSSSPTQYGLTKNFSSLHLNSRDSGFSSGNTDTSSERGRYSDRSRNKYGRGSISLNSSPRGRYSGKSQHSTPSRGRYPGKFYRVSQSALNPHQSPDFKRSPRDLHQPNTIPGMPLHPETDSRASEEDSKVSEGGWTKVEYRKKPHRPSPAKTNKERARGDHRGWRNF
Chain of protein kinases (human kinome) (Homo sapiens, UniProt P53350) (P53350 whole entry): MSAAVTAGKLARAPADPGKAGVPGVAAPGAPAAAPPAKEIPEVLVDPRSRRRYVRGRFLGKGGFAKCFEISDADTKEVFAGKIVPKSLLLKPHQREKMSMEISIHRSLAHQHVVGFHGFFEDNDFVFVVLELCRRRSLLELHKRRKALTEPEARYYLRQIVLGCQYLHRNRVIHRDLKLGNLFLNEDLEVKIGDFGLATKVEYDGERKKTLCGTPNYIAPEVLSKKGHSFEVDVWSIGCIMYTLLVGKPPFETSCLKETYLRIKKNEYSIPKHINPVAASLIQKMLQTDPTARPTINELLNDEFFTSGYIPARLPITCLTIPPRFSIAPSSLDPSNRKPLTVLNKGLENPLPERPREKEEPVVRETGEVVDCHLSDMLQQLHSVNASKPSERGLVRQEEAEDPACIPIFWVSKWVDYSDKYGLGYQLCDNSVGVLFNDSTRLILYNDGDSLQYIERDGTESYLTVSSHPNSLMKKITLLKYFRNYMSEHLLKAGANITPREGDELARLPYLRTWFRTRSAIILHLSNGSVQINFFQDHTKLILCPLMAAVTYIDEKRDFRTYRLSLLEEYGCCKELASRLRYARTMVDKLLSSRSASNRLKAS
Chain of protein kinases (human kinome) (Homo sapiens, UniProt Q9Y4K4) (Q9Y4K4 whole entry): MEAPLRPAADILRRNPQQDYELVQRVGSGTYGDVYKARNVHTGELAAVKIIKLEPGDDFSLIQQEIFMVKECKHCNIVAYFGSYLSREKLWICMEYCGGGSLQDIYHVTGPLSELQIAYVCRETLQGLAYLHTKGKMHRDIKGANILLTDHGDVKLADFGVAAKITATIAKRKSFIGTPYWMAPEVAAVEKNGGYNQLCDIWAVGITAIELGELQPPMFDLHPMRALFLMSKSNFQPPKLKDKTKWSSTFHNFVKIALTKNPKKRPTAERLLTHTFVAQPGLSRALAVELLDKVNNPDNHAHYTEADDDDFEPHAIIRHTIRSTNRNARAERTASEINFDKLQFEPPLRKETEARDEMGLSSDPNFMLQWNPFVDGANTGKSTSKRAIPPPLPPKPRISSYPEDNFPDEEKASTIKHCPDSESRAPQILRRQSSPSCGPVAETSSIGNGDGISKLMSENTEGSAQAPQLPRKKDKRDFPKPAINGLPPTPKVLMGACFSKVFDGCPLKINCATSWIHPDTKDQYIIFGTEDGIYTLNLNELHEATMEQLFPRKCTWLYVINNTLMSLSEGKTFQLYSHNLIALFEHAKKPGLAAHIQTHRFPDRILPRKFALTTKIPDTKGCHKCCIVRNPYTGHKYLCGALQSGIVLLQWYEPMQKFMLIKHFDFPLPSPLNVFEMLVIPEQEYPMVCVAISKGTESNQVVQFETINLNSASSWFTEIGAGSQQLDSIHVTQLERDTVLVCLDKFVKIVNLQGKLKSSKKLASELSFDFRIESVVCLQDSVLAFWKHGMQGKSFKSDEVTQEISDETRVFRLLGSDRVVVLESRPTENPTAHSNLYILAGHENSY

Turning to `CC(C)S(=O)(=O)c1ccccc1Nc1nc(Nc2ccc(N3CCN(CCOCCOCCNC(=O)CNc4cccc5c4C(=O)N(C4CCC(=O)NC4=O)C5=O)CC3)cc2)ncc1Cl` (centres unmarked) [TL12.186], the logFC in assay [1] (experiment wp137) is recorded as −0.3334; in assay [1] (experiment wp137, direction down) it was −0.3334.
As to `CS(=O)(=O)Nc1cccc(-c2csc3cnc(Nc4ccc(N5CCN(CCCCCOc6cccc7c6C(=O)N(C6CCC(=O)NC6=O)C7=O)CC5)cc4)nc23)c1` (centres unmarked) [DB0614, N-(3-(2-((4-(4-(5-((2-(2,6-Dioxopiperidin-3-yl)-1,3-dioxoisoindolin-4-yl)oxy)pentyl)piperazin-1-yl)phenyl)amino)thieno[3,2-d]pyrimidin-7-yl)phenyl)methanesulfonamide], the logFC in assay [2] (setting [6]) was −2.74; in assay [2] (setting [7]), −3.006; in assay [2] (NEK9 Q8TD19, experiment wp045), −2.74; in assay [2] (NEK9 Q8TD19, experiment wp117), −3.006.
In the case of `O=C1CCC(N2C(=O)c3cccc(NCCCCCCCCN4CCC(NC(=O)c5[nH]ncc5NC(=O)c5c(Cl)cccc5Cl)CC4)c3C2=O)C(=O)N1` (centres unmarked) [MFH.5.126.1], in assay [3] (PLK1 P53350, experiment wp076), the logFC is −1.071 and the “logFC PLK1” value is reported as −1.071.
`Cc1cc(Nc2ncc(Br)c(Nc3cccc(F)c3C(N)=O)n2)ccc1S(=O)(=O)NCCOCCOCCOCCOCCNc1cccc2c1C(=O)N(C1CCC(=O)NC1=O)C2=O` (centres unmarked) [TMX.02.174]: the logFC in assay [2] (NEK9 (Q8TD19), experiment wp146, direction down) is recorded as −0.3626; in assay [2] (NEK9 Q8TD19, experiment wp146), −0.3626.
For the molecule `CCc1cnn2c(N(Cc3ccc(N)nc3)C(=O)CCOCCOCCOCCNC(=O)CNc3cccc4c3C(=O)N(C3CCC(=O)NC3=O)C4=O)cc(N3CCCC[C@H]3CCO)nc12` (some centres unmarked) [MFH.5.115.2], in assay [3] (PLK1 P53350, experiment wp076), the logFC is on record as −0.56 and the “logFC PLK1” value is reported as −0.56.
Turning to `CC(C)(C)c1nc(-c2cccc(NS(=O)(=O)c3c(F)cccc3F)c2F)c(-c2ccnc(NCCOCCNC(=O)CCOCCOCCNc3cccc4c3C(=O)N(C3CCC(=O)NC3=O)C4=O)n2)s1` (centres unmarked) [DD.03.106], in assay [4] (Experiment wp147, 2 uM), the “logFC MAP3K20 (Q9NYL2)” value was −0.4079. For the same molecule, the “logFC MAP3K20” value in assay [4] (MAP3K20 Q9NYL2; experiment wp147, 2 uM) is reported as −0.4079. For the same molecule, in assay [3] (PLK1 P53350, experiment wp147, 4 uM), the “logFC PLK1” value is recorded as −0.3533. Further, the logFC in assay [3] (PLK (P53350), experiment wp147, 4 uM) is −0.3533.
Turning to `Cc1cnc(Nc2ccc(N3CCN(CCCCCCC(=O)N[C@H](C(=O)N4C[C@H](O)C[C@H]4C(=O)N[C@@H](C)c4ccc(-c5scnc5C)cc4)C(C)(C)C)CC3)cc2)nc1Nc1cccc(S(=O)(=O)NC(C)(C)C)c1` [JWG.123], the logFC in assay [2] (NEK9 (Q8TD19), experiment wp195, direction down) is −1.079; in assay [2] (NEK9 Q8TD19, experiment wp195), −1.079.
As to `Cc1ncsc1-c1ccc([C@H](C)NC(=O)[C@@H]2C[C@@H](O)CN2C(=O)[C@@H](NC(=O)CCOCCOCCN2CCN(c3ccc(Nc4ncc(Cl)c(Nc5ccccc5S(=O)(=O)C(C)C)n4)cc3)CC2)C(C)(C)C)cc1` [FMF.06.098.1], the logFC in assay [1] (experiment wp108) was −0.4347; in assay [1] (experiment wp108, direction down) it was −0.4347; in assay [1] (experiment wp131) it was −0.4637; in assay [1] (experiment wp131, direction down), −0.4637.
For `Cc1ccc(NC(=O)c2cccc(C(F)(F)F)c2)cc1N1Cc2cnc(Nc3ccc(N4CCN(Cc5cn(CCCCCOc6cccc7c6C(=O)N(C6CCC(=O)NC6=O)C7=O)nn5)CC4)nc3)nc2N(C)C1=O` (centres unmarked) [DB0646, N-(3-(7-((6-(4-((1-(5-((2-(2,6-Dioxopiperidin-3-yl)-1,3-dioxoisoindolin-4-yl)oxy)pentyl)-1H-1,2,3-triazol-4-yl)methyl)piperazin-1-v)pyridin-3-yl)amino)-1-methyl-2-oxo-1,4-dihydropyrimido[4,5-d]pyrimidin-3(2H)-yl)-4-methylphenyl)-3-(trifluoromethyl)benzamide], the “logFC MAP3K20 (Q9NYL2)” value in assay [4] (Experiment wp045) is −0.4248; in assay [4] (Experiment wp107) it was −0.53; in assay [4] (Experiment wp160, 2 hr), −0.3293; in assay [4] (experiment wp152) it was −0.6556. In addition, the “logFC MAP3K20” value in assay [4] (MAP3K20 Q9NYL2; experiment wp045) is on record as −0.4248; in assay [4] (MAP3K20 Q9NYL2; experiment wp107) it was −0.53; in assay [4] (MAP3K20 Q9NYL2; experiment wp152), −0.6556; in assay [4] (MAP3K20 Q9NYL2; experiment wp160, 2 hr), −0.3293; in assay [4] (MAP3K20 Q9NYL2; experiment wp160, 4 hr) it was −0.6192; in assay [4] (MAP3K20 Q9NYL2; experiment wp160, 8 hr), −0.9197. For the same molecule, the “logFC MAP3K20” value in assay [4] (MAP3K20 Q9NYL2; experiment wp160; 4 hr) is on record as −0.6192; in assay [4] (MAP3K20 Q9NYL2; experiment wp160; 8 hr), −0.9197; in assay [4] (MAP3K20 Q9NYL2; experiment wp172) it was −0.3864. The logFC in assay [3] (PLK1 P53350, experiment wp152) is given as −0.331; in assay [5] (experiment wp045) it was −0.4109; in assay [5] (experiment wp045, direction down), −0.4109; in assay [5] (experiment wp107) it was −0.3345; in assay [5] (setting [8]), −0.3345; in assay [5] (experiment wp160, 8 hr), −0.5009. The molecule further had a logFC in assay [5] (experiment wp160, 8 hr, direction down) of −0.5009. In addition, in assay [3] (PLK1 P53350, experiment wp152), the “logFC PLK1” value is −0.331.
Regarding `CS(=O)(=O)Nc1cccc(-c2csc3cnc(Nc4ccc(N5CCN(CCOCCOCCOc6cccc7c6C(=O)N(C6CCC(=O)NC6=O)C7=O)CC5)cc4)nc23)c1` (centres unmarked) [RSS0628], the logFC in assay [2] (setting [6]) is listed as −2.438; in assay [2] (NEK9 Q8TD19, experiment wp045), −2.438.
As to `Cc1ccc(NC(=O)c2cccc(C(F)(F)F)c2)cc1N1Cc2cnc(Nc3ccc(N4CCN(CCCOc5cccc6c5C(=O)N(C5CCC(=O)NC5=O)C6=O)CC4)nc3)nc2N(C)C1=O` (centres unmarked) [DB0662], the “logFC MAP3K20” value in assay [4] (MAP3K20 Q9NYL2; experiment wp168) is −0.737.
As to `Cc1ccc(C(=O)Nc2ccc(CN3CCN(CCCOCCOCCOCCNC(=O)COc4cccc5c4C(=O)N(C4CCC(=O)NC4=O)C5=O)CC3)c(C(F)(F)F)c2)cc1C#Cc1cnc2cccnn12` (centres unmarked) [SB1.G.187], the logFC in assay [5] (experiment wp105) is given as −0.3488; in assay [5] (experiment wp105, direction down) it was −0.3488; in assay [5] (experiment wp107), −0.4411; in assay [5] (setting [8]), −0.4411.
As to `CNC(=O)c1ccccc1Nc1cc(Nc2ccc(N3CCN(CCOCCOCCNC(=O)CNc4cccc5c4C(=O)N(C4CCC(=O)NC4=O)C5=O)CC3)cc2OC)ncc1C(F)(F)F` (centres unmarked) [MFH.5.103.1], the logFC in assay [1] (experiment wp076) is −0.4142; in assay [1] (experiment wp076, direction down), −0.4142.
For `Cc1ncsc1-c1ccc([C@H](C)NC(=O)[C@@H]2C[C@@H](O)CN2C(=O)[C@@H](NC(=O)CCCCCN2CCN(c3ccc(Nc4ncc5scc(-c6cccc(NS(C)(=O)=O)c6)c5n4)cc3)CC2)C(C)(C)C)cc1` [RSS0680, (2S,4R)-1-((S)-3,3-Dimethyl-2-(6-(4-(4-((7-(3-(methylsulfonamido)phenyl)thieno[3,2-d]pyrimidin-2-yl)amino)phenyl)piperazin-1-yl)hexanamido)butanoyl)-4-hydroxy-N—((S)-1-(4-(4-methylthiazol-5yl)phenyl)ethyl)pyrrolidine-2-carboxamide], the logFC is listed as −1.277 in assay [2] (NEK9 (Q8TD19), experiment wp080, direction down); −1.483 in assay [2] (setting [7]); −1.277 in assay [2] (NEK9 Q8TD19, experiment wp080); −1.483 in assay [2] (NEK9 Q8TD19, experiment wp117).

The values are drawn from patent publication US20240269139A1, “COMPOUNDS FOR TARGETED PROTEIN DEGRADATION OF KINASES” (DANA-FARBER CANCER INSTITUTE, INC., priority 2020, published 2024).
